The source of these data is paper PMC2171590 (The Journal of Cell Biology, 2005).

Assay [1] addresses GST-tagged Las17WCA (S. cerevisiae). Description: pull-down.
Assay [2] concerns the target Arp2/3 complex (yeast) (Saccharomyces cerevisiae, UniProt P32381+P47117, P32381:G305Y). The assay can be described thus: fluorescence increase titration, one-site fit. The assay is classed as binding.
The target of assay [3] is Arp2/3 complex (yeast) (Saccharomyces cerevisiae, UniProt P32381+P47117, P47117:F362A). Description: fluorescence increase titration, one-site fit. The assay is classed as binding.
The target in assay [4] is Arp2/3 complex (yeast) (Saccharomyces cerevisiae, UniProt P32381+P47117, P47117:G358Y). The assay can be described thus: fluorescence increase titration, one-site fit. The format is binding.
Assay [5] concerns the target Arp2/3 complex (yeast) (Saccharomyces cerevisiae, UniProt P32381+P47117, P32381:D10A). The assay can be described thus: fluorescence increase titration, one-site fit. The format is binding.
Assay [6] has as its target Arp2/3 complex (yeast) (Saccharomyces cerevisiae, UniProt P32381+P47117). The assay can be described thus: fluorescence increase titration, one-site fit. The format is binding.
Assay [7] addresses Arp2/3 complex (yeast) (Saccharomyces cerevisiae, UniProt P32381+P47117, P32381:Y309A). Description: fluorescence increase titration, one-site fit. The format is binding.
Assay [8] addresses Arp2/3 complex (yeast) (Saccharomyces cerevisiae, UniProt P32381+P47117, P47117:D12A). Description: fluorescence increase titration, one-site fit. The assay is classed as binding.

Chain of GST-tagged Las17WCA (S. cerevisiae) (Q12446 whole entry): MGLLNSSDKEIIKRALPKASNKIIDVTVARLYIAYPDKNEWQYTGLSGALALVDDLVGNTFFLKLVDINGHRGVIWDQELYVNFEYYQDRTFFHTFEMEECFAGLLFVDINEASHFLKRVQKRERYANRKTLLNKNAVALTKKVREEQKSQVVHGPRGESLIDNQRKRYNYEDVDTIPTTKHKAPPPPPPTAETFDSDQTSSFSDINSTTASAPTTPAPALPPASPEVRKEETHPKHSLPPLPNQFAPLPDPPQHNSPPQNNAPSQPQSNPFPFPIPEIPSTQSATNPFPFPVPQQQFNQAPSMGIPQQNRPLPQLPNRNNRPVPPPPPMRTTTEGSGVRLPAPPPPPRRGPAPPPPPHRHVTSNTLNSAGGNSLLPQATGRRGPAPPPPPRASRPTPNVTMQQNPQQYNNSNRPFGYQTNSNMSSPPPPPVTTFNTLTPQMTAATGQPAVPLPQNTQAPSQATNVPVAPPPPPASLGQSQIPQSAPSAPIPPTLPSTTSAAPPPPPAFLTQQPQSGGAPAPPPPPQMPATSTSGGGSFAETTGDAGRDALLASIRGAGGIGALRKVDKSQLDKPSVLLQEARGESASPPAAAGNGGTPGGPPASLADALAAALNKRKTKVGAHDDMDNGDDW

Usually Kd stands for a measure of binding affinity in units of concentration. A low value points to tighter binding. “wild-type yeast Arp2/3 complex (from UniProt P32381 1-391; P47117 1-449; P38328 1-384; Q05933 1-178; P40518 1-154)” had a Kd in assay [1] of 4.5 µM.
Regarding “arp3-G302Y Arp2/3 complex (from UniProt P32381 1-391; P38328 1-384; Q05933 1-178; P40518 1-154)”, the Kd in assay [1] came out at 4.5 µM. This counts as single-digit micromolar.
“arp2-G302Y Arp2/3 complex (from UniProt P47117 1-449; P38328 1-384; Q05933 1-178; P40518 1-154)”: the Kd in assay [1] was 3.9 µM.
On to `O=P(O)(O)OP(=O)(O)OP(=O)(O)OC[C@H]1O[C@@H](n2cnc3c2ncn2ccnc32)[C@H](O)[C@@H]1O` [etheno-ATP], for which the Kd stood at 1800 ± 100 nM on Arp2/3 complex (yeast) [2]; 16.7 ± 4.2 µM on Arp2/3 complex (yeast) [3]; 22 ± 4.4 µM at Arp2/3 complex (yeast) [4]; 2000 ± 100 nM at Arp2/3 complex (yeast) [5]; 2300 ± 100 nM on Arp2/3 complex (yeast) [6]; 2400 ± 200 nM at Arp2/3 complex (yeast) [7]. In addition, binding at Arp2/3 complex (yeast) [8] was put at a Kd of 34.5 ± 2.2 µM.
